Experimental data taken from US8409550B2, “Method for treating skin with retinoids and retinoid boosters” (Unilever Home & Personal Care, USA, Division of Conopco, …, priority 2000, dated 2013).
Several values for one entry are separate records, joined by “and”; a condition that tells them apart may be missing. Identical values can stand only once. Like-named read-outs stand apart in the source and are kept apart here. Values belong to the compound of their own block, whether it stands above or below them.

Columns and labels:
Retinal Reductase = test: Assay for retinal reductase activity, rat liver microsomes (to identify B3); type: biochemical; details: test compound final 100 μM
ARAT = test: Assay for ARAT activity, bovine RPE microsomes (to identify B1); type: biochemical; details: for % Inhibition ARAT (100 jm): compound 100 jm; for % Inhibition ARAT (10 jm): compound 10 jm
LRAT = biological target: T1, LRAT (Bos taurus, UniProt Q9BGL2); test: Assay for LRAT activity, bovine RPE microsomes (to identify B1); type: biochemical; details: for % Inhibition LRAT (100 jm): compound 100 jm; for % Inhibition LRAT (10 jm): compound 10 jm
T1 construct: followed by approximately 15 μg of RPE microsomal protein; tissue W. L. Lawson Co., Lincoln, Nebr., USA (eyecups); host or cells: bovine retinal pigment epithelium microsomes
T1 sequence (Q9BGL2 1-230): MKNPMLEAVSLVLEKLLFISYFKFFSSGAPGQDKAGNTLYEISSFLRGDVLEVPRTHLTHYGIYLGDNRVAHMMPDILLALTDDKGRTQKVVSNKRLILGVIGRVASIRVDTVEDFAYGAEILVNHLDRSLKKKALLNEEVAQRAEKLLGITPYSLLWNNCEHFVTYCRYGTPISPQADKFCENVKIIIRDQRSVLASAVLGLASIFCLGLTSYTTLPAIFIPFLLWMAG

[1] = tested on: transglutaminase (TGase I); test: Transglutaminase (Tgase) ELISA assay in cultured keratinocytes with retinol and boosters; type: cell-based, human; details: for TG as % C, Compd 3: Compound 3 alone; for TG as % C, Compd 3 / TG as % C Compd 2 / TG as % C Compd 1: concentration one log below IC20; for IC20: IC20 (80% of control)
[2] = tested on: cytochrome P450 dependent retinoic acid oxidation; test: Assay for NADPH dependent retinoic acid oxidation, rat liver microsomes (to identify B5); details: for % Inhibition Retinoic Acid (10 μM): compound 10 μM; for % Inhibition Retinoic Acid (100 μM): compound 100 μM
[3] = in the presence of 10^-7M retinol
[4] = compound tested individually in the presence of 10^-7 M retinol
[5] = B1 table, booster concentration which with 10^−7 M retinol inhibits TGase by 50%, same values in the 19th table (Molar), read-out: Overall TG (IC 50)
[6] = Tgase inhibition, compound tested individually in the presence of 10^-7 M retinol, read-out: IC50
[7] = Compound 1 alone, in the presence of 10^-7M retinol
[8] = Compound 2 alone, in the presence of 10^-7M retinol

Compound: CCCCCCCCCCCCCCCCCCCC(=O)O [Arachidic Acid]
% Inhibition Retinal Reductase (Retinal Reductase): 20%

Compound: Santanol
% Inhibition ARAT (100 jm) (ARAT): 15%
% Inhibition LRAT (100 jm) (LRAT): 43%

Compound: CC1(C)[C@@H](OC(=O)CCC(=O)O)CC[C@]2(C)[C@H]3C(=O)C=C4[C@@H]5C[C@@](C)(C(=O)O)CC[C@]5(C)CC[C@@]4(C)[C@]3(C)CC[C@@H]12 [Carbenoxolone, reference compound]
TG as % C, Compd 3 [1, 3]: 88 % C
IC20 [1, 4]: 0.2 µM
TG as % C Compd 2 ([1]; compound 2 alone, with retinol): 164 % C
% Inhibition Retinal Reductase (Retinal Reductase): 26% +/− 2

Compound: C/C=C\C(=O)C1C(C)=CCCC1(C)C (stereo not drawn) [Alpha-Damascone]
IC50 [1, 5]: 335 µM
IC20 [1, 4]: 169 µM
IC50 [1, 6]: 335 µM
TG as % C Compd 1 ([1]; compound 1 alone, with retinol, listed as Alpha-demascone): 95 % C and 112 % C
% Inhibition LRAT (10 jm) (LRAT): 87% +/− 6
% Inhibition LRAT (100 jm) (LRAT): 98% +/− 1

Compound: COc1cc(C=O)ccc1O [Vanillin]
TG as % C, Compd 3 [1, 3]: 134 % C
IC20 [1, 4]: 8470 µM
% Inhibition Retinal Reductase (Retinal Reductase): 6%

Compound: Clc1ccc(COC(Cn2ccnc2)c2ccc(Cl)cc2Cl)cc1 (centres unmarked) [Econazole]
% Inhibition Retinoic Acid (10 μM) [2]: 88%
% Inhibition Retinoic Acid (100 μM) [2]: 100%

Compound: Brahmanol
% Inhibition ARAT (100 jm) (ARAT): 70%
% Inhibition LRAT (100 jm) (LRAT): 75%

Compound: Glycerol-PCA-Oleate
% Inhibition ARAT (100 jm) (ARAT): 41% +/− 6
% Inhibition LRAT (100 jm) (LRAT): 58% +/− 2

Compound: CCCCCCCC/C=C\CCCCCCCC1=NCCN1CCO [Oleyl Hydroxyethylimidazoline]
% Inhibition Retinoic Acid (10 μM) [2]: 54%
% Inhibition Retinoic Acid (100 μM) [2]: 80%
IC50 ([1]; B5 table, with 10^−7 M retinol, read-out: Overall TG (IC 50)): 30.2 µM
TG as % C, Compd 3 [1, 3]: 76 % C
IC20 [1, 4]: 5.65 µM
IC50 [1, 6]: 30.2 µM
TG as % C Compd 2 ([1]; compound 2 alone, with retinol, listed as Oleoyl hydorxyethylimdazoline): 92 % C
TG as % C Compd 2 ([1]; compound 2 alone, with retinol, listed as Oleoyl hydroxyethylimiazoline): 73 % C

Compound: c1ccc(-c2ccc(C(c3ccccc3)n3ccnc3)cc2)cc1 (centres unmarked) [Bifonazole]
% Inhibition Retinoic Acid (10 μM) [2]: 89%
% Inhibition Retinoic Acid (100 μM) [2]: 100%

Compound: CCCCC/C=C\C/C=C\C/C=C\C/C=C\CCCC(=O)O [Arachidonic Acid]
% Inhibition Retinal Reductase (Retinal Reductase): 49%

Compound: Damascenone
% Inhibition LRAT (10 jm) (LRAT): 29%
% Inhibition LRAT (100 jm) (LRAT): 79%

Compound: CCCCC/C=C\C/C=C\CCCCCCCC(=O)O [Linoleic Acid]
TG as % C, Compd 3 [1, 3]: 11 % C
IC20 [1, 4]: 89.5 µM
% Inhibition Retinal Reductase (Retinal Reductase): 62% +/− 2

Compound: CC(C)(C(=O)c1cccnc1)c1cccnc1 [2-Methyl-1,2-di-3-Pyridyl-1-Propane]
% Inhibition Retinoic Acid (100 μM) [2]: 47%

Compound: O=c1c(O)c(-c2ccc(O)c(O)c2)oc2cc(O)cc(O)c12 [Quercetin]
% Inhibition Retinoic Acid (10 μM) [2]: 40%
% Inhibition Retinoic Acid (100 μM) [2]: 74%
TG as % C, Compd 3 [1, 3]: 92 % C
IC20 [1, 4]: 51.1 µM

Compound: CC(C)(C)C(=O)C(Oc1ccc(Cl)cc1)n1ccnc1 (centres unmarked) [Climbazole, reference compound]
% Inhibition Retinoic Acid (10 μM) [2]: 80%
% Inhibition Retinoic Acid (100 μM) [2]: 92%
TG as % C Compd 2 [1, 8]: 84 % C
TG as % C, Compd 3 [1, 3]: 84 % C
IC20 [1, 4]: 0.245 µM

Compound: Alpha-Methyl Ionone
% Inhibition ARAT (100 jm) (ARAT): 67%
% Inhibition LRAT (100 jm) (LRAT): 77%

Compound: Santalone
% Inhibition ARAT (100 jm) (ARAT): 23%
% Inhibition LRAT (100 jm) (LRAT): 12%

Compound: Gamma-Methyl Ionone
% Inhibition LRAT (100 jm) (LRAT): 38%

Compound: Clc1ccccc1C(c1ccccc1)(c1ccccc1)n1ccnc1 [Clotrimazole, reference compound]
% Inhibition Retinoic Acid (10 μM) [2]: 76%
TG as % C, Compd 3 [1, 3]: 79 % C

Compound: CC(=O)CCC1C(C)=CCCC1(C)C (stereo not drawn) [Dihydro Alpha-Ionone]
% Inhibition ARAT (100 jm) (ARAT): 13%
% Inhibition LRAT (100 jm) (LRAT): 18%

Compound: Isocyclogeraniol
% Inhibition ARAT (100 jm) (ARAT): 18%
% Inhibition LRAT (100 jm) (LRAT): 16%

Compound: Ethyl Saffranate
% Inhibition LRAT (100 jm) (LRAT): 49%

Compound: CC(=O)N1CCN(c2ccc(OCC3COC(Cn4ccnc4)(c4ccc(Cl)cc4Cl)O3)cc2)CC1 (centres unmarked) [Ketoconazole, reference compound]
% Inhibition Retinoic Acid (10 μM) [2]: 84%
% Inhibition Retinoic Acid (100 μM) [2]: 84%
TG as % C Compd 2 [1, 8]: 85 % C
IC20 [1, 4]: 0.0552 µM

Second part, led by results:

% Inhibition LRAT (100 jm) (LRAT): 92%
Compound: CC=CC(=O)C1CCC(C)(C)C=C1C (centres unmarked) [Isodamascone]
% Inhibition ARAT (100 jm) (ARAT): 80%

IC50 [1, 5]: 99.9 µM
TG as % C Compd 1 [1, 7]: 104 % C
IC20 [1, 4]: 69.4 µM
IC50 [1, 6]: 99.9 µM
% Inhibition LRAT (100 jm) (LRAT): 37% +/− 9
Compound: Hexanoyl Sphingosine
TG as % C Compd 1 ([1]; compound 1 alone, with retinol): 122 % C and 99.3 % C and 99 % C and 109 % C

IC50 [1, 6]: 8.64 µM
% Inhibition Retinal Reductase (Retinal Reductase): 38% +/− 1
Compound: CC1(C)[C@@H](O)CC[C@]2(C)[C@H]3C(=O)C=C4[C@@H]5C[C@@](C)(C(=O)O)CC[C@]5(C)CC[C@@]4(C)[C@]3(C)CC[C@@H]12 [Glycyrretinic Acid, Glycyrrhetinic Acid]
TG as % C Compd 2 [1, 8]: 91 % C
TG as % C, Compd 3 [1, 3]: 91 % C
IC20 [1, 4]: 5.96 µM
TG as % C Compd 2 ([1]; compound 2 alone, with retinol): 92 % C

% Inhibition LRAT (10 jm) (LRAT): 64%
% Inhibition LRAT (100 jm) (LRAT): 95%
Compound: Delta-Damascone

% Inhibition LRAT (100 jm) (LRAT): 45%
Compound: Isobutyl Ionone
% Inhibition ARAT (100 jm) (ARAT): 8%

% Inhibition Retinal Reductase (Retinal Reductase): 26%
Compound: CCCCCCCCCCCCCC(=O)O [Myristic Acid]
TG as % C Compd 1 [1, 7]: 79 % C
IC20 [1, 4]: 10.5 µM
TG as % C Compd 1 ([1]; compound 1 alone, with retinol): 110 % C

% Inhibition LRAT (10 jm) (LRAT): 0%
% Inhibition LRAT (100 jm) (LRAT): 17% +/− 17
Compound: CCCCCCCC(=O)OCC(COP(=O)(O)OCCN)OC(=O)CCCCCCC (centres unmarked) [Dioctylphosphatidyl Ethanolamine]
% Inhibition ARAT (10 jm) (ARAT): 23%

IC50 [1, 5]: 6.78 µM
TG as % C, Compd 3 [1, 3]: 99 % C
IC20 [1, 4]: 5.15 µM
IC50 [1, 6]: 6.78 µM
% Inhibition LRAT (10 jm) (LRAT): 10% +/− 10
% Inhibition LRAT (100 jm) (LRAT): 50% +/− 18
Compound: Acetyl Sphingosine
% Inhibition ARAT (10 jm) (ARAT): 19% +/− 12
% Inhibition ARAT (100 jm) (ARAT): 62% +/− 11

% Inhibition Overall TG (—ROH/RE) ([1]; % (booster+retinol inhibition/control inhibition) − % (ROH inhibition/control inhibition)): 59%
% Inhibition LRAT (10 jm) (LRAT): 11% +/− 9
% Inhibition LRAT (100 jm) (LRAT): 51% +/− 15
Compound: CCCCC/C=C\C/C=C\CCCCCCCC(=O)N(CCO)CCO [Linoleoyl Diethanolamide]

% Inhibition LRAT (100 jm) (LRAT): 34%
Compound: Cocoyl Monoethanolamide
% Inhibition ARAT (100 jm) (ARAT): 13%

% Inhibition Retinoic Acid (10 μM) [2]: 74%
% Inhibition Retinoic Acid (100 μM) [2]: 86%
Compound: Clc1ccc(COC(Cn2ccnc2)c2ccc(Cl)cc2Cl)c(Cl)c1 (centres unmarked) [Miconazole, reference compound]
TG as % C Compd 2 [1, 8]: 92 % C
TG as % C, Compd 3 [1, 3]: 82 % C
IC20 [1, 4]: 0.0842 µM
